Reference: ChEMBL document CHEMBL5465560, “Selectivity Literature for EUbOPEN Chemogenomic Library” (2024)

Key:
[1] = target: T1, Mitogen-activated protein kinase kinase kinase 15 (Homo sapiens) (UniProt Q6ZN16); test: Selectivity interaction (KinomeScan (DiscoverX)) EUB0000595a MAP3K15; details: at 10 µM
T1 sequence (whole entry): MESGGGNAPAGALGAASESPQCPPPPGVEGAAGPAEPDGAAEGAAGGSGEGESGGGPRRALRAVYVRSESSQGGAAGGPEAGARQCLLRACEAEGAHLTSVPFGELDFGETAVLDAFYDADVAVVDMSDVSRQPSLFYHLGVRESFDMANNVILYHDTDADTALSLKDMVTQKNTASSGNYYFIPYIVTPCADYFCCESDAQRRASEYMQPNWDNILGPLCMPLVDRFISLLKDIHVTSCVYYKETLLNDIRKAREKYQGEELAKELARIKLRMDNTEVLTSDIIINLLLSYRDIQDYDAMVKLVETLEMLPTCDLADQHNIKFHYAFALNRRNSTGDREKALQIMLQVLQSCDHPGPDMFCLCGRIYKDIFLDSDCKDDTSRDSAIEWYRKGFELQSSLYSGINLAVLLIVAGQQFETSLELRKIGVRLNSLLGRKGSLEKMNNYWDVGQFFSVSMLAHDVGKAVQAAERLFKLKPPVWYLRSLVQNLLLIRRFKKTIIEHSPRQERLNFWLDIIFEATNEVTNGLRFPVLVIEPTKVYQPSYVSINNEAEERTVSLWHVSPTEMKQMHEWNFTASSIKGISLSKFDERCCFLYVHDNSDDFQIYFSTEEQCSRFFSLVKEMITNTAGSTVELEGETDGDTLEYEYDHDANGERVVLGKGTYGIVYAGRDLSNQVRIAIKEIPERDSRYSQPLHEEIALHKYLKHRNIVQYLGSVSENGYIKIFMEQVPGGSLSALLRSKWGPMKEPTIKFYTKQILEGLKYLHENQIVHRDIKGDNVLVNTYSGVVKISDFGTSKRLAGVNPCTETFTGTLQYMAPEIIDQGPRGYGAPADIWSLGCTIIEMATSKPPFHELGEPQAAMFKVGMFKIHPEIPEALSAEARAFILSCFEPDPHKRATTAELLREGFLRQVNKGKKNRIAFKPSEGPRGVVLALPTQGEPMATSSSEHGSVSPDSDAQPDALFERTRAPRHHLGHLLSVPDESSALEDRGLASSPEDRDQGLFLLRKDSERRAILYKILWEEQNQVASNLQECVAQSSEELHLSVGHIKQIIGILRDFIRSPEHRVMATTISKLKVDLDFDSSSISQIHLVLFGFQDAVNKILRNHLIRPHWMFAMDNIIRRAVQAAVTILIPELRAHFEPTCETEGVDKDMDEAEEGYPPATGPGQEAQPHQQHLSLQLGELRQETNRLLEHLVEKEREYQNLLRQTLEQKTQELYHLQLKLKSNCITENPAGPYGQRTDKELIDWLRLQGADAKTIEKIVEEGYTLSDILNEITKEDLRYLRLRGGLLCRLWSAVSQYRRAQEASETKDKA

[2] = target: Phosphatidylinositol 4,5-bisphosphate 3-kinase catalytic subunit alpha isoform (Homo sapiens) (UniProt P42336); test: (§1) Selectivity interaction (KinomeScan (DiscoverX)) EUB0000045b PIK3CA
Phosphatidylinositol 4,5-bisphosphate 3-kinase catalytic subunit alpha isoform (Homo sapiens), sequence (P42336 whole entry, canonical isoform): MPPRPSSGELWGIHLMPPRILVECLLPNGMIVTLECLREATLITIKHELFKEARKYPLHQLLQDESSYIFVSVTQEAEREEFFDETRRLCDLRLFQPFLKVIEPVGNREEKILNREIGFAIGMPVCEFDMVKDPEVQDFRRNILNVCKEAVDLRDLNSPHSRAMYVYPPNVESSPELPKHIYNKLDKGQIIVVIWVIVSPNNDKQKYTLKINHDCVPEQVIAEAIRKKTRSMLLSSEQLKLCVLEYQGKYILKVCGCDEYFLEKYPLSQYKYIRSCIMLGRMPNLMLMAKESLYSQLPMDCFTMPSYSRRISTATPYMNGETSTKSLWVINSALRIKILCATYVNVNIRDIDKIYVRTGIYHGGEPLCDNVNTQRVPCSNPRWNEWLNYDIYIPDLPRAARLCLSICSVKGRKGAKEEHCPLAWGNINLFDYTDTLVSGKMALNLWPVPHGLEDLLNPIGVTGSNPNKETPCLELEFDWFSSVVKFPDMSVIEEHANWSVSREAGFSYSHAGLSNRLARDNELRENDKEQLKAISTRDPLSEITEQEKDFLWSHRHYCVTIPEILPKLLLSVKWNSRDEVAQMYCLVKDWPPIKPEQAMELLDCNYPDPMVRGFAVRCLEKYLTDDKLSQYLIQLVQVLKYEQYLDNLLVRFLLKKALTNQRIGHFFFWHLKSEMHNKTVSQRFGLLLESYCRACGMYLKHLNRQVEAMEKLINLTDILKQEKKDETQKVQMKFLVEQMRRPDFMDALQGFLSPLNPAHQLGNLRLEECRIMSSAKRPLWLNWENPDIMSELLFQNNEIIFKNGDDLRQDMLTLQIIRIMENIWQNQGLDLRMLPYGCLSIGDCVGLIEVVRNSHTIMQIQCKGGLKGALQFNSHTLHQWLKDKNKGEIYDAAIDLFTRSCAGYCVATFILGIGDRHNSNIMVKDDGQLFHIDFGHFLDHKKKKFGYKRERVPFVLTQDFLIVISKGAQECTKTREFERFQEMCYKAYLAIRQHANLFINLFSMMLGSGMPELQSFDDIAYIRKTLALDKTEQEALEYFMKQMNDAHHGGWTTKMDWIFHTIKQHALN

[3] = test system: Phosphatidylinositol 4,5-bisphosphate 3-kinase catalytic subunit alpha isoform (Homo sapiens), P42336 [M1043I]; test: as §1
[4] = test system: Phosphatidylinositol 4,5-bisphosphate 3-kinase catalytic subunit alpha isoform (Homo sapiens), P42336 [E542K]; test: as §1
Phosphatidylinositol 4,5-bisphosphate 3-kinase catalytic subunit alpha isoform (Homo sapiens), P42336 [E542K], sequence (P42336 whole entry E542K, canonical isoform): as the sequence (P42336 whole entry, canonical isoform) above, with E542K counted along it

[5] = test system: Phosphatidylinositol 4,5-bisphosphate 3-kinase catalytic subunit alpha isoform (Homo sapiens), P42336 [H1047Y]; test: as §1
[6] = test system: Phosphatidylinositol 4,5-bisphosphate 3-kinase catalytic subunit alpha isoform (Homo sapiens), P42336 [E545A]; test: as §1
[7] = test system: Phosphatidylinositol 4,5-bisphosphate 3-kinase catalytic subunit alpha isoform (Homo sapiens), P42336 [E545K]; test: as §1
[8] = test system: Phosphatidylinositol 4,5-bisphosphate 3-kinase catalytic subunit alpha isoform (Homo sapiens), P42336 [Q546K]; test: as §1
Phosphatidylinositol 4,5-bisphosphate 3-kinase catalytic subunit alpha isoform (Homo sapiens), P42336 [Q546K], sequence (P42336 whole entry Q546K, canonical isoform): as the sequence (P42336 whole entry, canonical isoform) above, with Q546K counted along it

[9] = test system: Phosphatidylinositol 4,5-bisphosphate 3-kinase catalytic subunit alpha isoform (Homo sapiens), P42336 [C420R]; test: as §1
[10] = test system: Phosphatidylinositol 4,5-bisphosphate 3-kinase catalytic subunit alpha isoform (Homo sapiens), P42336 [H1047L]; test: as §1
Phosphatidylinositol 4,5-bisphosphate 3-kinase catalytic subunit alpha isoform (Homo sapiens), P42336 [H1047L], sequence (P42336 whole entry H1047L, canonical isoform): as the sequence (P42336 whole entry, canonical isoform) above, with H1047L counted along it

[11] = test system: Phosphatidylinositol 4,5-bisphosphate 3-kinase catalytic subunit alpha isoform (Homo sapiens), P42336 [I800L]; test: as §1
[12] = target: T2, Mitogen-activated protein kinase kinase kinase 7 (Homo sapiens) (UniProt O43318); test: Selectivity interaction (KinomeScan (DiscoverX)) EUB0000666a MAP3K7; details: at 10 µM
T2 sequence (whole entry): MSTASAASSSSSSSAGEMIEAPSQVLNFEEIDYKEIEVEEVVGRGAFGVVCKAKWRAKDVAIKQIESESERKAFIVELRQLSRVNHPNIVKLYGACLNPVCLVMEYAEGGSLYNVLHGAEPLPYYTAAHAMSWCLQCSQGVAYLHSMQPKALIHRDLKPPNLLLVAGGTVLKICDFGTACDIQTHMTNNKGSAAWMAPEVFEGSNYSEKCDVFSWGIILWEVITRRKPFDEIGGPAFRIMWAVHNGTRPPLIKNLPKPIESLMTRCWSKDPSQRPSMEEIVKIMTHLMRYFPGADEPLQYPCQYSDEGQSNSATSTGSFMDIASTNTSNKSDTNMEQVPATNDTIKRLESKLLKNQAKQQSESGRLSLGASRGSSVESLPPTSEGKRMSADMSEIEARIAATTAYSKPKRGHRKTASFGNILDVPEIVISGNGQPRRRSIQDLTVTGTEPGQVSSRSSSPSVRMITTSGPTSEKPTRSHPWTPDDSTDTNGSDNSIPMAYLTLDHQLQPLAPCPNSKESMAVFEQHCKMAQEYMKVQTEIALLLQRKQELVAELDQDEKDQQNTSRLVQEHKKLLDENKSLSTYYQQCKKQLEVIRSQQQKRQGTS

[13] = target: High affinity nerve growth factor receptor (Homo sapiens, UniProt P04629); test: Selectivity interaction (ProQinase) EUB0000171b NTRK1
High affinity nerve growth factor receptor, sequence (P04629 33-796 limits assumed): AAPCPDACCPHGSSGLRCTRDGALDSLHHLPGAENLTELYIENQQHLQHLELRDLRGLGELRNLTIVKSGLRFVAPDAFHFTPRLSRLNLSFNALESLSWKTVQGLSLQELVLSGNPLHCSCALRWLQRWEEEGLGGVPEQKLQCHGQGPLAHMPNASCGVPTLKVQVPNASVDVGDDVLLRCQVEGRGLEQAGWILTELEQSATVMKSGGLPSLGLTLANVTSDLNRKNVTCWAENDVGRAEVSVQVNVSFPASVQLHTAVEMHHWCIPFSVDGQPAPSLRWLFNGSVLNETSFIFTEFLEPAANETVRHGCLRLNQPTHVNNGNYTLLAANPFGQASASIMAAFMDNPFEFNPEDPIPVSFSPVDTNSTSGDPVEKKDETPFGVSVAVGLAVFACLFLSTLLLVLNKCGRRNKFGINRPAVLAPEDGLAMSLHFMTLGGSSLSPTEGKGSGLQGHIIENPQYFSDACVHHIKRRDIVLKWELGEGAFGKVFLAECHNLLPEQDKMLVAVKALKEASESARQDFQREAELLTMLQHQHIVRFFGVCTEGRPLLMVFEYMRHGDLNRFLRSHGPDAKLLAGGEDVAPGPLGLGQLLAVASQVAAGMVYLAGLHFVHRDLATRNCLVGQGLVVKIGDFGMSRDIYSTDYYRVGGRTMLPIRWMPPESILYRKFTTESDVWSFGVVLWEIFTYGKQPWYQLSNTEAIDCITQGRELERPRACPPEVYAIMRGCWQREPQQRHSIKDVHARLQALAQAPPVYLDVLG

[14] = target: Protein kinase C beta type (Homo sapiens, UniProt P05771); test: Selectivity interaction (Kinase panel (Invitrogen)) EUB0000639a PRKCB; details: at 200 nM
[15] = target: Cyclin-dependent kinase 13 (Homo sapiens, UniProt Q14004); test: Selectivity interaction (KinomeScan (DiscoverX)) EUB0000655a CDK13; details: at 10 µM

SMILES: COCC(=O)NC/C=C/c1ccc2ncnc(Nc3ccc(Oc4ccc(C)nc4)c(C)c3)c2c1 [CP-724714]
- % of control [1]: 100%

SMILES: C=CC(=O)Nc1cc(-n2c(=O)ccc3cnc4ccc(-c5ccc(NS(C)(=O)=O)cc5)cc4c32)ccc1C
- % of control ([2]; at 1 µM): 68%
- % of control ([2]; at 10 µM): 9.9%
- % of control ([3]; at 1 µM): 100%
- % of control ([3]; at 10 µM): 24%
- % of control ([4]; at 1 µM): 100%
- % of control ([4]; at 10 µM): 23%
- % of control ([5]; at 1 µM): 88%
- % of control ([5]; at 10 µM): 26%
- % of control ([6]; at 1 µM): 90%
- % of control ([6]; at 10 µM): 17%
- % of control ([7]; at 1 µM): 100%
- % of control ([7]; at 10 µM): 74%
- % of control ([8]; at 1 µM): 100%
- % of control ([8]; at 10 µM): 35%
- % of control ([9]; at 1 µM): 100%
- % of control ([9]; at 10 µM): 32%
- % of control ([10]; at 1 µM): 100%
- % of control ([10]; at 10 µM): 86%
- % of control ([11]; at 1 µM): 46%
- % of control ([11]; at 10 µM): 7.6%

SMILES: O=C(NOC[C@H](O)CO)c1ccc(F)c(F)c1Nc1ccc(I)cc1F
- % of control [12]: 75%

SMILES: C=CC(=O)Nc1cccc(C(=O)Nc2ccc(Nc3cc(-c4[nH]c(SC)nc4C)ccn3)cc2)c1
- % of control ([13]; at 1 µM): 81%
- % of control ([13]; at 5 µM): 58%

SMILES: CC[C@@H]1[C@H](F)C(=O)N[C@@H]1COc1nccc2cc(C(N)=O)c(OC)cc12 [ZIMLOVISERTIB]
- % of inhibition [14]: 6.06%

SMILES: CN(C)CCOc1ccc(-c2nc(-c3ccncc3)c(-c3ccc4c(c3)CC/C4=N\O)[nH]2)cc1
- % of control [15]: 100%
